Test system: hepatocytes
Test: Seq-Well scRNA-Seq of hepatocytes after APAP overdose (signature scores, DEG vs untreated)
Type: in vivo, mouse

CC(=O)Nc1ccc(O)cc1 [APAP, acetaminophen]
Cp avg_logFC (APAP composite vs UT): 0.4362
Cyb5 avg_logFC (APAP composite vs UT): −0.7102
Cyp4a10 avg_logFC (APAP composite vs UT): 1.135
Cyp4a14 avg_logFC (APAP composite vs UT): 1.704
Fabp1 avg_logFC (APAP composite vs UT): −1.016
Fga avg_logFC (APAP composite vs UT): 0.8285
Fgb avg_logFC (APAP composite vs UT): 0.745
Fgg avg_logFC (APAP composite vs UT): 0.6805
Fgl1 avg_logFC (APAP composite vs UT): 0.8649
Fth1 avg_logFC (APAP composite vs UT): 0.3784
Gclc avg_logFC (APAP composite vs UT): 1.903
Gm13775 avg_logFC (APAP composite vs UT): −1.078
Gm15564 avg_logFC (APAP composite vs UT): 1.821
Gm24601 avg_logFC (APAP composite vs UT): 0.9844
Gm26924 avg_logFC (APAP composite vs UT): 1.419
Gpx1 avg_logFC (APAP composite vs UT): −0.7686
Grip2 avg_logFC (APAP composite vs UT): 0.8779
Hbb-bs avg_logFC (APAP composite vs UT): 2.862
Hilpda avg_logFC (APAP composite vs UT): 0.7786
Hmgcs2 avg_logFC (APAP composite vs UT): 0.6293
Hmox1 avg_logFC (APAP composite vs UT): 1.348
Hrg avg_logFC (APAP composite vs UT): 0.5189
Igfbp4 avg_logFC (APAP composite vs UT): 0.4353
Lars2 avg_logFC (APAP composite vs UT): 1.711
Mat1a avg_logFC (APAP composite vs UT): 1
Mfsd2a avg_logFC (APAP composite vs UT): 0.6661
Mt1 avg_logFC (APAP composite vs UT): 2.388
Mt2 avg_logFC (APAP composite vs UT): 2.063
Mup3 avg_logFC (APAP composite vs UT): −0.8062
Mup5 avg_logFC (APAP composite vs UT): −1.371
Mup6 avg_logFC (APAP composite vs UT): −2.032
Mup7 avg_logFC (APAP composite vs UT): −1.116
Mup9 avg_logFC (APAP composite vs UT): −2.004
Mup11 avg_logFC (APAP composite vs UT): −3.214
Mup12 avg_logFC (APAP composite vs UT): −1.27
Mup15 avg_logFC (APAP composite vs UT): −1.316
Mup16 avg_logFC (APAP composite vs UT): −1.602
Mup17 avg_logFC (APAP composite vs UT): −2.354
Mup18 avg_logFC (APAP composite vs UT): −1.727
Mup19 avg_logFC (APAP composite vs UT): −2.396
Mup21 avg_logFC (APAP composite vs UT): −1.008
Ndrg2 avg_logFC (APAP composite vs UT): 0.4122
Nudt7 avg_logFC (APAP composite vs UT): −1.564
Ppl avg_logFC (APAP composite vs UT): 0.8798
Rbp4 avg_logFC (APAP composite vs UT): 0.3014
Retsat avg_logFC (APAP composite vs UT): 0.6813
S100a8 avg_logFC (APAP composite vs UT): 1.128
S100a9 avg_logFC (APAP composite vs UT): 1.343
Saa1 avg_logFC (APAP composite vs UT): −1.078
Selenbp2 avg_logFC (APAP composite vs UT): −1.19
Sephs2 avg_logFC (APAP composite vs UT): 0.89
Sepp1 avg_logFC (APAP composite vs UT): 0.4486
Serpina1a avg_logFC (APAP composite vs UT): −0.6752
Serpina1e avg_logFC (APAP composite vs UT): −0.662
Serpina1d avg_logFC (APAP composite vs UT): −0.494
Slco1a4 avg_logFC (APAP composite vs UT): 0.5526
Snord118 avg_logFC (APAP composite vs UT): 0.6174
Srxn1 avg_logFC (APAP composite vs UT): 1.878
Sult1a1 avg_logFC (APAP composite vs UT): 0.5605
Tnfrsf12a avg_logFC (APAP composite vs UT): 1.118
Ttpa avg_logFC (APAP composite vs UT): 0.6012
Ttr avg_logFC (APAP composite vs UT): −0.5306
mt-Co1 avg_logFC (APAP composite vs UT): −1.433
mt-Co2 avg_logFC (APAP composite vs UT): −1.397
mt-Cytb avg_logFC (APAP composite vs UT): −1.571
mt-Nd1 avg_logFC (APAP composite vs UT): −1.42
mt-Nd2 avg_logFC (APAP composite vs UT): −1.242
mt-Nd4 avg_logFC (APAP composite vs UT): −1.957
mt-Nd5 avg_logFC (APAP composite vs UT): −1.384
mt-Rnr1 avg_logFC (APAP composite vs UT): −0.4854
mt-Rnr2 avg_logFC (APAP composite vs UT): −0.7783
n-R5-8s1 avg_logFC (APAP composite vs UT): 1.253
1-Mar logFC (APAP vs UT): −0.4778
2-Mar logFC (APAP vs UT): −0.5599
1110008F13Rik logFC (APAP vs UT): −0.4553
1600014C10Rik logFC (APAP vs UT): −0.4982
3110043O21Rik logFC (APAP vs UT): 0.2694
8430408G22Rik logFC (APAP vs UT): −0.5021
AA474408 logFC (APAP vs UT): 0.4364
Aadac logFC (APAP vs UT): −0.62
Abca1 logFC (APAP vs UT): 0.7245
Abhd2 logFC (APAP vs UT): 0.4844
Acox1 logFC (APAP vs UT): 0.2752
Acsl4 logFC (APAP vs UT): 0.3147
Acss2 logFC (APAP vs UT): −0.6201
Adh4 logFC (APAP vs UT): −0.5269
Adh5 logFC (APAP vs UT): −0.4914
Adh6-ps1 logFC (APAP vs UT): −0.4185
Adipor2 logFC (APAP vs UT): −0.4738
Agmat logFC (APAP vs UT): −0.4718
Ak3 logFC (APAP vs UT): 0.289
Akr1c14 logFC (APAP vs UT): −0.5186
Akr1c20 logFC (APAP vs UT): −0.5542
Akr1e1 logFC (APAP vs UT): −0.2582
Alas1 logFC (APAP vs UT): −0.4898
Alb logFC (APAP vs UT): 0.4203
Alcam logFC (APAP vs UT): 0.3238
Aldh1a1 logFC (APAP vs UT): −0.4788
Aldh3a2 logFC (APAP vs UT): −0.8342
Aldh8a1 logFC (APAP vs UT): −0.6837
Aox3 logFC (APAP vs UT): −0.3333
